In the supplement of paper PMC11061612:

How the values were obtained:
Experiment in all cases: Bliss excess, mean over the matrix (fraction); higher = more synergy
[1] = test system: ALL-SIL (T-Lymphoblastic Leukemia)
How it was run: (§1)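 After 24 hours at 37°C and 5% CO2 in 1536-well plates, cells in DMEM/F12 or RPMI plus 10% FBS received two-drug dose matrices for 72 hours. Viability came from CellTiter-Glo 2.0 luminescence and was scaled as inhibition, anchored at 0 by vehicle wells and at 1 by blank wells. Combination Emax is taken as the second-highest inhibition in the matrix, and Bliss excess as the observed combination effect less EA + EB − EA·EB, with EA and EB the single-agent effects.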

[2] = test system: CADO-ES1 (Ewing's Sarcoma)
How it was run: as §1

[3] = test system: Ca-Ski (Cervical Carcinoma)
How it was run: as §1

[4] = test system: DU-145 (Prostate Carcinoma)
How it was run: as §1

[5] = test system: EFO-21 (Ovarian Carcinoma)
How it was run: as §1

EW-1 (Ewing's Sarcoma) = test system: EW-1 (Ewing's Sarcoma)
How it was run: as §1

[6] = test system: HAL-01 (B-Lymphoblastic Leukemia)
How it was run: as §1

[7] = test system: HCC2998 (Colorectal Carcinoma)
How it was run: as §1

[8] = test system: KOPN-8 (B-Lymphoblastic Leukemia)
How it was run: as §1

[9] = test system: LC-1-sq (Squamous Cell Lung Carcinoma)
How it was run: as §1

[10] = test system: MDA-MB-453 (Breast Carcinoma)
How it was run: as §1

[11] = test system: ME-180 (Cervical Carcinoma)
How it was run: as §1

[12] = test system: MOG-G-UVW (Low Grade Glioma)
How it was run: as §1

[13] = test system: NCI-H1838 (Lung Adenocarcinoma)
How it was run: as §1

[14] = test system: NCI-H2122 (Lung Adenocarcinoma)
How it was run: as §1

[15] = test system: NCI-H522 (Lung Adenocarcinoma)
How it was run: as §1

[16] = test system: OACM5-1 (Esophageal Adenocarcinoma)
How it was run: as §1

[17] = test system: OE33 (Esophageal Adenocarcinoma)
How it was run: as §1

SK-N-AS (Neuroblastoma) = test system: SK-N-AS (Neuroblastoma)
How it was run: as §1

[18] = test system: SW982 (Other Solid Carcinomas)
How it was run: as §1

Row | Structure (SMILES) | Bliss excess [1] | Bliss excess [2] | Bliss excess [3] | Bliss excess [4] | Bliss excess [5] | Bliss excess (EW-1 (Ewing's Sarcoma)) | Bliss excess [6] | Bliss excess [7] | Bliss excess [8] | Bliss excess [9] | Bliss excess [10] | Bliss excess [11] | Bliss excess [12] | Bliss excess [13] | Bliss excess [14] | Bliss excess [15] | Bliss excess [16] | Bliss excess [17] | Bliss excess (SK-N-AS (Neuroblastoma)) | Bliss excess [18]
1 | CN(CCO)CC[C@H](CSc1ccccc1)Nc1ccc(S(=O)(=O)NC(=O)c2ccc(N3CCC([C@@H](O)c4ccccc4-c4ccc(Cl)cc4)CC3)cc2)cc1S(=O)(=O)C(F)(F)F [AZD4320] + C=CCn1c(=O)c2cnc(Nc3ccc(N4CCN(C)CC4)cc3)nc2n1-c1cccc(C(C)(C)O)n1 [AZD1775] (first compound max 1 µM, partner max 1 µM) | 0.0693 | -0.005 | 0.0198 | -0.0308 | -0.078 | 0.0581 | 0.0695 | 0.0609 | 0.0016 | 0.0279 | 0.047 | -0.0304 | -0.0193 | -0.0311 | -0.0143 | -0.0299 | -0.01 | -0.0093 | -0.0292 | 0.0247
2 | CN(CCO)CC[C@H](CSc1ccccc1)Nc1ccc(S(=O)(=O)NC(=O)c2ccc(N3CCC([C@@H](O)c4ccccc4-c4ccc(Cl)cc4)CC3)cc2)cc1S(=O)(=O)C(F)(F)F [AZD4320] + CN(C)CCCOc1ccc(-c2ccc3ncc4c(c3c2)n(C2CCOCC2)c(=O)n4C)cn1 [AZD0156] (first compound max 1 µM, 7x7, partner max 1 µM) | 0.0035 | 0.0269 | -0.0173 | -0.0284 | -0.0579 | 0.0527 | 0.024 | -0.01 | -0.052 | 0.0065 | -0.0449 | -0.0339 | -0.0476 | 0.0135 | -0.0121 | -0.027 | -0.0016 | -0.0312 | -0.0331 | -0.0487
3 | COc1nnc2ccc(N3CCC(c4ccc(OCCN5CCN(C)C(=O)[C@H]5C)cc4)CC3)nn12 [AZD5153] + C=CCn1c(=O)c2cnc(Nc3ccc(N4CCN(C)CC4)cc3)nc2n1-c1cccc(C(C)(C)O)n1 [AZD1775] (first compound max 1 µM, partner max 1 µM) | -0.0289 | -0.0483 | 0.0125 | -0.0286 | -0.0036 | -0.0484 | -0.0938 | -0.0083 | -0.0267 | -0.0288 | -0.0243 | -0.022 | -0.0518 | -0.0531 | -0.0432 | -0.0617 | 0.0128 | -0.0386 | -0.056 | -0.079
4 | COc1nnc2ccc(N3CCC(c4ccc(OCCN5CCN(C)C(=O)[C@H]5C)cc4)CC3)nn12 [AZD5153] + CC1(C)CCC(CN2CCN(c3ccc(C(=O)NS(=O)(=O)c4ccc(NCC5CCOCC5)c([N+](=O)[O-])c4)c(Oc4cnc5[nH]ccc5c4)c3)CC2)=C(c2ccc(Cl)cc2)C1 [Venetoclax] (first compound max 1 µM, 7x7, partner max 1 µM) | 0.0565 | -0.088 | -0.095 | -0.0181 | -0.0464 | -0.068 | -0.0804 | -0.0766 | 0.0517 | 0.0066 | -0.0381 | -0.0515 | -0.0315 | -0.0605 | -0.041 | -0.0711 | -0.0458 | -0.0775 | -0.0792 | -0.0581
5 | COc1nnc2ccc(N3CCC(c4ccc(OCCN5CCN(C)C(=O)[C@H]5C)cc4)CC3)nn12 [AZD5153] + CCN(CCO)CCCOc1ccc2c(Nc3cc(CC(=O)Nc4cccc(F)c4)[nH]n3)ncnc2c1 [AZD2811] (first compound max 1 µM, 7x7, partner max 1 µM) | 0.0139 | -0.0493 | -0.0238 | -0.0241 | -0.0771 | -0.0086 | -0.0689 | -0.0288 | -0.0341 | -0.0282 | -0.0087 | -0.0644 | -0.0313 | -0.0282 | -0.08 | -0.115 | 0.0367 | -0.0523 | -0.0065 | -0.0857
6 | COc1nnc2ccc(N3CCC(c4ccc(OCCN5CCN(C)C(=O)[C@H]5C)cc4)CC3)nn12 [AZD5153] + C[C@@H]1COCCN1C2=NC(=NC(=C2)C3(CC3)[S@](=N)(=O)C)C4=C5C=CNC5=NC=C4 [AZD6738] (first compound max 1 µM, 7x7, partner max 10 µM) | 0.079 | -0.0881 | 0.0406 | -0.0094 | -0.0069 | 0.0041 | -0.0737 | 0.0607 | -0.0114 | 0.0175 | -0.0534 | -0.0108 | -0.046 | 0.0023 | -0.0163 | -0.0075 | 0.0593 | -0.0427 | 0.002 | -0.0392
7 | COc1nnc2ccc(N3CCC(c4ccc(OCCN5CCN(C)C(=O)[C@H]5C)cc4)CC3)nn12 [AZD5153] + Cc1c2c(nn1C)CSCc1cc(n(C)n1)CSc1cc(c3ccccc3c1)OCCCc1c(C(=O)O)n(C)c3c-2c(Cl)ccc13 [AZD5991] (first compound max 1 µM, 7x7, partner max 1 µM) | 0.041 | 0.0176 | 0.0415 | -0.021 | -0.0428 | 0.0165 | -0.0787 | 0.0352 | 0.0112 | 0.0198 | 0.0437 | -0.0435 | -0.0387 | -0.0412 | -0.0402 | 0.0012 | 0.0114 | -0.0711 | -0.0164 | -0.0488
8 | COc1nnc2ccc(N3CCC(c4ccc(OCCN5CCN(C)C(=O)[C@H]5C)cc4)CC3)nn12 [AZD5153] + Cn1cnc2c(F)c(Nc3ccc(Br)cc3Cl)c(C(=O)NOCCO)cc21 [Selumetinib] (first compound max 1 µM, 7x7, partner max 10 µM) | -0.0303 | -0.0469 | 0.0324 | 0.0192 | -0.0593 | 0.041 | 0.0347 | 0.0118 | 0.114 | 0.0073 | -0.0141 | -0.019 | -0.0045 | 0.03 | 0.0659 | -0.042 | -0.0306 | 0.0318 | 0.0307 | -0.0039
9 | Cc1c2c(nn1C)CSCc1cc(n(C)n1)CSc1cc(c3ccccc3c1)OCCCc1c(C(=O)O)n(C)c3c-2c(Cl)ccc13 [AZD5991] + C1CN(CCC1(C(=O)N[C@@H](CCO)C2=CC=C(C=C2)Cl)N)C3=NC=NC4=C3C=CN4 [Capivasertib] (first compound max 1 µM, 7x7, partner max 3 µM) | -0.0384 | -0.029 | 0.0269 | 0.007 | -0.0406 | 0.0232 | 0.0298 | -0.0434 | -0.0468 | -0.0015 | 0.05 | -0.028 | -0.0173 | 0.0017 | 0.0061 | 0.0415 | -0.0123 | -0.0328 | 0.0017 | -0.0074
10 | Cc1c2c(nn1C)CSCc1cc(n(C)n1)CSc1cc(c3ccccc3c1)OCCCc1c(C(=O)O)n(C)c3c-2c(Cl)ccc13 [AZD5991] + CC1(C)CCC(CN2CCN(c3ccc(C(=O)NS(=O)(=O)c4ccc(NCC5CCOCC5)c([N+](=O)[O-])c4)c(Oc4cnc5[nH]ccc5c4)c3)CC2)=C(c2ccc(Cl)cc2)C1 [Venetoclax] (first compound max 1 µM, 7x7, partner max 1 µM) | 0.0333 | -0.0023 | 0.0006 | -0.0185 | -0.0608 | 0.103 | 0.0231 | -0.0362 | -0.102 | 0.0184 | 0.0023 | 0.0131 | 0.0083 | 0.0125 | 0.0016 | -0.0118 | 0.0228 | -0.0077 | 0.0857 | -0.0312
11 | Cc1c2c(nn1C)CSCc1cc(n(C)n1)CSc1cc(c3ccccc3c1)OCCCc1c(C(=O)O)n(C)c3c-2c(Cl)ccc13 [AZD5991] + CN(C)CCCOc1ccc(-c2ccc3ncc4c(c3c2)n(C2CCOCC2)c(=O)n4C)cn1 [AZD0156] (first compound max 1 µM, 7x7, partner max 1 µM) | 0.0049 | -0.0098 | 0.0319 | 0.0146 | -0.0062 | 0.0051 | -0.0246 | 0.0003 | -0.118 | 0.0103 | -0.0091 | 0.0231 | -0.0104 | 0.043 | 0.0237 | -0.0354 | -0.0029 | -0.0227 | -0.0303 | -0.0485
12 | Cc1c2c(nn1C)CSCc1cc(n(C)n1)CSc1cc(c3ccccc3c1)OCCCc1c(C(=O)O)n(C)c3c-2c(Cl)ccc13 [AZD5991] + C[C@@H]1COCCN1C2=NC(=NC(=C2)C3(CC3)[S@](=N)(=O)C)C4=C5C=CNC5=NC=C4 [AZD6738] (first compound max 1 µM, 7x7, partner max 10 µM) | 0.0316 | 0.0135 | 0.0267 | 0.0122 | 0.016 | 0.0344 | -0.0042 | 0.044 | -0.0067 | 0.047 | 0.0525 | 0.0329 | 0.0058 | -0.0021 | 0.0199 | 0.0595 | 0.0257 | -0.0688 | -0.0034 | -0.0086
13 | Cc1c2c(nn1C)CSCc1cc(n(C)n1)CSc1cc(c3ccccc3c1)OCCCc1c(C(=O)O)n(C)c3c-2c(Cl)ccc13 [AZD5991] + C[C@@H](Nc1cc(F)cc(F)c1)c1cc(C(=O)N(C)C)cc2c(=O)cc(N3CCOCC3)oc12 [AZD8186] (first compound max 1 µM, 7x7, partner max 3 µM) | -0.0301 | -0.0479 | 0.0515 | -0.0204 | -0.0522 | -0.0431 | 0.015 | 0.0026 | 0.0014 | 0.0352 | -0.0506 | -0.0244 | -0.0451 | 0.0503 | 0.0684 | 0.0196 | 0.0078 | -0.0003 | -0.0122 | -0.0261
14 | C[C@@H]1COCCN1c1cc(C2([S@](C)(=N)=O)CC2)nc(-c2ccnc3[nH]ccc23)n1 [AZD6738] + O=C(c1cc(Cc2n[nH]c(=O)c3ccccc23)ccc1F)N1CCN(C(=O)C2CC2)CC1 [Olaparib] (first compound max 10 µM, 7x7, partner max 10 µM) | 0.0291 | 0.03 | 0.0414 | 0.0008 | -0.0375 | 0.0174 | 0.003 | 0.0443 | -0.0358 | 0.0157 | -0.0764 | 0.0056 | 0.0629 | -0.138 | -0.0303 | 0.0229 | 0.0071 | -0.0384 | 0.0223 | -0.0202
